The source of these data is article PMC7026418, “The kinase polypharmacology landscape of clinical PARP inhibitors” (Scientific Reports, 2020).

Assay in all cases: biochemical
Common to all, as to parameters: DiscoveRx KINOMEscan active site-directed competition binding; percent of control kinase bound to immobilised ligand

For one test, the target named is T1, NLK (Homo sapiens, UniProt Q9UBE8).
T1 sequence (Q9UBE8 1-527): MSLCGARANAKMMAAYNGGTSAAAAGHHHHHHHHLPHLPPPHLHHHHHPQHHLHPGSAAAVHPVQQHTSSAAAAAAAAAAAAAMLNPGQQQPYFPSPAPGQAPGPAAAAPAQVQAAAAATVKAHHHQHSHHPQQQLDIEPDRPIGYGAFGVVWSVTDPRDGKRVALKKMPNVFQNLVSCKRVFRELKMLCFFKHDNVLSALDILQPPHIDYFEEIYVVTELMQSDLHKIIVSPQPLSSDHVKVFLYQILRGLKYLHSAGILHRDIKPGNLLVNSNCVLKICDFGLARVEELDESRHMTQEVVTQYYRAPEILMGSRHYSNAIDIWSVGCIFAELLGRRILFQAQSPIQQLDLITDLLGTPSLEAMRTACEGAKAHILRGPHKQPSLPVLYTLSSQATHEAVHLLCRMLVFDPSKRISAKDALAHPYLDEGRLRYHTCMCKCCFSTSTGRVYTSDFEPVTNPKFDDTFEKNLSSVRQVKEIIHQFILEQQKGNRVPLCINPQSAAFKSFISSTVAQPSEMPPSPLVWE

The target of a further test is T2, RIOK3 (Homo sapiens, UniProt O14730).
T2 sequence (O14730 1-519): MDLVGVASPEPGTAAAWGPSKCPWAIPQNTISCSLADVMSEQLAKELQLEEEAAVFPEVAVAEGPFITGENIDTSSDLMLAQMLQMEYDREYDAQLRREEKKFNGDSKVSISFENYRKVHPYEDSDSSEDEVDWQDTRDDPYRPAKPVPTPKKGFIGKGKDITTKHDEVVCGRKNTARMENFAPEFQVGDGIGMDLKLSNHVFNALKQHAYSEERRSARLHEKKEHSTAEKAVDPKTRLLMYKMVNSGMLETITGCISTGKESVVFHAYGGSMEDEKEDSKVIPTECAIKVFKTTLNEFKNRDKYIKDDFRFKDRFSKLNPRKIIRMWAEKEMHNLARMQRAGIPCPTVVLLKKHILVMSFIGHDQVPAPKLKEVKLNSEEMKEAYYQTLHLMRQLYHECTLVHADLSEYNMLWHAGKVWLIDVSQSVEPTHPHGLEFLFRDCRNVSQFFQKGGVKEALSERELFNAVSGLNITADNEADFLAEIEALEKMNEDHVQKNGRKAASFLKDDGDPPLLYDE

Another test has as its target T3, FLT3(D835Y) (Homo sapiens, UniProt P36888, D835Y).
T3 sequence (P36888 1-993 D835Y): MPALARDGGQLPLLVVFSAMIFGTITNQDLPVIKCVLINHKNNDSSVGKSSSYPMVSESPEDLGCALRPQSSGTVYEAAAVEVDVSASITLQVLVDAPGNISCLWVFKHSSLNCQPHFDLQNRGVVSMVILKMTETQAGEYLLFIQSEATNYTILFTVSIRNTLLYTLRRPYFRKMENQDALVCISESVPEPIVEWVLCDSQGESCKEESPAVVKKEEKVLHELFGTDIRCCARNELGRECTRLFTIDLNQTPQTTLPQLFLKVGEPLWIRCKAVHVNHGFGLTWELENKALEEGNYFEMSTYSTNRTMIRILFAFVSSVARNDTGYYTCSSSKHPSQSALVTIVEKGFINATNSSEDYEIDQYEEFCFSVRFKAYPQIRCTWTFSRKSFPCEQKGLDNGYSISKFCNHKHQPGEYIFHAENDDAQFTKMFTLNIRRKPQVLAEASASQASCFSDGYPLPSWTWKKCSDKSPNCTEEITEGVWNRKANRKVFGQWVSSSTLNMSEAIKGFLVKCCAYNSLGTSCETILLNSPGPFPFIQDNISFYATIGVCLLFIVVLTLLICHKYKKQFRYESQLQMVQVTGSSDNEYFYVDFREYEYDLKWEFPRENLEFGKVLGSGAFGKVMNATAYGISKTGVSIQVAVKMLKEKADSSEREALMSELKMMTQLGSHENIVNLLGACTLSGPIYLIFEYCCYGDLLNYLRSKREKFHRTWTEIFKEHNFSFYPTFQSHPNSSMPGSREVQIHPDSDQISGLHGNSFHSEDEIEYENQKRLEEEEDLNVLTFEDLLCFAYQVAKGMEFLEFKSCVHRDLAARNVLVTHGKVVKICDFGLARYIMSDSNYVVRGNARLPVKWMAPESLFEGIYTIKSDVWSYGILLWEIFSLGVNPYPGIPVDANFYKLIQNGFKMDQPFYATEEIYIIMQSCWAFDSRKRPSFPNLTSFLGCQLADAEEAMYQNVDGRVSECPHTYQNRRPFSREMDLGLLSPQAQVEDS

The target in the next test is T4, DRAK2 (Homo sapiens, UniProt O94768).
T4 construct: gene STK17B
T4 sequence (O94768 1-372): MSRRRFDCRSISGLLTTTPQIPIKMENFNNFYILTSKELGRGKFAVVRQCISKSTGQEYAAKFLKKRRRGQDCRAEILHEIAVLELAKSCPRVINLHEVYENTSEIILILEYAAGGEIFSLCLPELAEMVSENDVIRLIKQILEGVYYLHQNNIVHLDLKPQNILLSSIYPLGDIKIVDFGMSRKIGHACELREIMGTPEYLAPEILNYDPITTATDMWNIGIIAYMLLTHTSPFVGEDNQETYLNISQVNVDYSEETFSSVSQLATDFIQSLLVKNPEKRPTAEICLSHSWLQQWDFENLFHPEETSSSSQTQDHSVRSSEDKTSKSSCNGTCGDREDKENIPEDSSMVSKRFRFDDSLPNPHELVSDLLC

The next test addresses INSR (Homo sapiens, UniProt P06213).
For the next test, the target named is CAMK1G (Homo sapiens, UniProt Q96NX5).
Setting [1] is: read-out: Niraparib (MK-4827) / %Ctrl @ 10000nM.
The mark [2] stands for this setting: read-out: Olaparib / %Ctrl @ 10000nM.
The mark [3] stands for this setting: read-out: Rucaparib / %Ctrl @ 10000nM, binding competition, % of control.
Where [4] appears, read: read-out: Talazoparib (BMN 673) / %Ctrl @ 10000nM.

Structures are written as SMILES. Like-named read-outs stand apart in the source and are kept apart here.

Sequence of CAMK1G (Q96NX5 whole entry): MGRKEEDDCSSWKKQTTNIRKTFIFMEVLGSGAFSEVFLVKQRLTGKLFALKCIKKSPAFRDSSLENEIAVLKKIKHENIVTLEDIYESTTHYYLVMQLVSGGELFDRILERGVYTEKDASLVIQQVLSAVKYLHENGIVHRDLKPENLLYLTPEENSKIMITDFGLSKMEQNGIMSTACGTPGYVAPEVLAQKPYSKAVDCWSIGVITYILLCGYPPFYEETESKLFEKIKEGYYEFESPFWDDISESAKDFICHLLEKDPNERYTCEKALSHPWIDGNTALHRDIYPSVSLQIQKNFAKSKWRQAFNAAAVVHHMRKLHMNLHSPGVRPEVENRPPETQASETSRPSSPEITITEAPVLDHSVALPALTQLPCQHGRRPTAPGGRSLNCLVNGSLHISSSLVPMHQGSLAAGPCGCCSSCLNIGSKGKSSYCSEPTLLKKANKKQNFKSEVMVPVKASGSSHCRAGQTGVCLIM
Sequence of INSR (P06213 whole entry): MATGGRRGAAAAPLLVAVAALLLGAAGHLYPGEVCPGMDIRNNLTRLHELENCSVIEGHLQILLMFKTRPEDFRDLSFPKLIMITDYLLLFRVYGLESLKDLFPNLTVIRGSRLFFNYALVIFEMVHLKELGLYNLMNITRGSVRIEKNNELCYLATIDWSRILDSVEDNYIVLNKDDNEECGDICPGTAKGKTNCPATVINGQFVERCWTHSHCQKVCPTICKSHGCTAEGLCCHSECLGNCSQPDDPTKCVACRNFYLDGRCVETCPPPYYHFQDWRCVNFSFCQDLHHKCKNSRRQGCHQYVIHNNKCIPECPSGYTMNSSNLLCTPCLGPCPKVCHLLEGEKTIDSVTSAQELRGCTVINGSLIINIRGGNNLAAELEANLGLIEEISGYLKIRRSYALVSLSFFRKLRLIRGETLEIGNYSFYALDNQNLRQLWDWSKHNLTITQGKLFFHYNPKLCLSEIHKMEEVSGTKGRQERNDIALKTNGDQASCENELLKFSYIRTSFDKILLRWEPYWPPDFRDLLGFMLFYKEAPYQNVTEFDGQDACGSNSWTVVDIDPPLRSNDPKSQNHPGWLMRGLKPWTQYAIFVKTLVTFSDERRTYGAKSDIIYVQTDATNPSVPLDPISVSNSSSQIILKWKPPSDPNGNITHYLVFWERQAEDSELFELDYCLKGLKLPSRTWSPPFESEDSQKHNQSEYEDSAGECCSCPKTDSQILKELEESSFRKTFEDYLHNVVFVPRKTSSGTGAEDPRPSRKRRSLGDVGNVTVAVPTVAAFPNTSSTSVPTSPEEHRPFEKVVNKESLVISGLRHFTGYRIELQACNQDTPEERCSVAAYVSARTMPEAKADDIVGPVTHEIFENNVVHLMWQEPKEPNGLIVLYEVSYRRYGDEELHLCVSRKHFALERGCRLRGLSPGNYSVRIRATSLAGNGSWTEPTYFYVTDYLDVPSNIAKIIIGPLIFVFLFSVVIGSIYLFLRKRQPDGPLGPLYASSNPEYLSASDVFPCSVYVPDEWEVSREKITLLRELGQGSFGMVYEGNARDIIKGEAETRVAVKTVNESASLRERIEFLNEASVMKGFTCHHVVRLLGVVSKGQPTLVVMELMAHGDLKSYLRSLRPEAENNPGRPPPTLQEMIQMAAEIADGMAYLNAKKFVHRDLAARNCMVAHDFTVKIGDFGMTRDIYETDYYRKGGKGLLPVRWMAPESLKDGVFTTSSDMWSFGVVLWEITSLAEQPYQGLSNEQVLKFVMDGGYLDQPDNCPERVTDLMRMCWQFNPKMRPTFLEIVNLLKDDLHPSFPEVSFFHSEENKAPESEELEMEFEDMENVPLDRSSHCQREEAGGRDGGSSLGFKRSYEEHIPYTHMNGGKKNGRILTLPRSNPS

In the case of `NC(=O)c1cccc2cn(-c3ccc([C@@H]4CCCNC4)cc3)nc12` [Niraparib], the percent of control binding at 10 µM came out at 100% at NLK (setting [1]); 95% on RIOK3 (setting [1]); 54% on FLT3(D835Y) (setting [1]); 82% on DRAK2 (setting [1]); 86% at INSR (setting [1]); 100% on CAMK1G (setting [1]).

As for `O=C(c1cc(Cc2n[nH]c(=O)c3ccccc23)ccc1F)N1CCN(C(=O)C2CC2)CC1` [Olaparib], the percent of control binding at 10 µM came out at 85% at NLK (setting [2]); 100% on RIOK3 (setting [2]); 87% at FLT3(D835Y) (setting [2]); 69% at DRAK2 (setting [2]); 85% on INSR (setting [2]); 93% at CAMK1G (setting [2]).

`CNCc1ccc(-c2[nH]c3cc(F)cc4c3c2CCNC4=O)cc1` [Rucaparib]: the percent of control binding at 10 µM at NLK (setting [3]) is 78%; on RIOK3 (setting [3]), 85%; on DRAK2 (setting [3]), 98%; on INSR (setting [3]), 86%; on CAMK1G (setting [3]), 89%. Besides, the “Rucaparib / %Ctrl @ 10000nM” value at FLT3(D835Y) (binding competition, % of control) was found to be 24%.

In the case of `Cn1ncnc1[C@H]1c2n[nH]c(=O)c3cc(F)cc(c23)N[C@@H]1c1ccc(F)cc1` [Talazoparib], the percent of control binding at 10 µM at NLK (setting [4]) stood at 100%; on RIOK3 (setting [4]) it was 100%; at FLT3(D835Y) (setting [4]), 96%; at DRAK2 (setting [4]), 100%; at INSR (setting [4]), 62%; on CAMK1G (setting [4]), 100%.
